pIC50: −log10 of the molar value. Structures can show the parent of a compound that is named as a salt.
Assays:
[1] = target: T1, farnesyl-protein transferase (FPTase) (Homo sapiens, UniProt P49354+P49356); assay: in vitro FPTase inhibition, K-Ras as substrate for farnesylation; assay type: biochemical; details: K-Ras used as substrate for farnesylation
Description: (§1) Enzyme test procedure: The FPTase inhibition in vitro assay was performed according to the method as described by James, G. L., Brown, M. S., and Goldstein, J. L., Methods in Enzymology, 1995, 255, 38-46; and Garcia, M. A., et al., J. Biol. Chem., 1993, 268, 18415-18420.
(§2) Materials—Purified FPTase (Moomaw, J. F. and Casey, P. J., J. Biol. Chem., 1992, 267, 17438-17443), purified His6-Ras, inhibitor compounds at 10 mg/ml or 10 mM in 100% DMSO, ^3H-FPP (50,000 dpm/pmol) Amersham, TCA/SDS (6%/2%), TCA (6%), Glass fiber filters ([…]), vacuum manifold or 96 well filtration plates.
(§3) Methods—1. Dilute FPTase inhibitors from stock solutions to 2.5× in 2.5% DMSO, 10 mM DTT, 0.5% octyl-B-glucoside. 2. Solution #1 is added to FPTase reaction in a volume of […]. 3. Standard reaction mix, […], contains 50 mM Tris (7.5),[…], 3 mM MgCl2, 20 mM KCl, 5 mM DTT, 0.2% octyl-B-glucoside, 1% DMSO, […], 10 ng FPTase, and various concentrations of FPTase inhibitors. 4. Incubate for 30-90 min at 25° C. 5. Stop reactions with TCA/SDS (6%/2%), hold at 4° C. for 45-60 min. 6. Filter by manifold or 96 well plate, wash filter 3-5× with TCA (6%). 7. Add scintillant to filters, measure ^3H-FPP incorporation into Ras protein.
(§4) Analysis of Results—Percent inhibition by test compounds is determined by the following:
(§5) (cpm from precipitated Ras with test compounds)−(background cpm)×100=% inhibition.
(§6) (cpm from precipitated Ras without test compounds)−(background cpm)

[2] = target: T1, farnesyl-protein transferase (FPTase); assay: in vitro FPTase inhibition, H-Ras as substrate for farnesylation; assay type: biochemical; details: H-Ras used as substrate for farnesylation
Description: as §1, §2, §3, §4, §5, §6

CCCCCCCCN(CCCn1ccnc1)C1=Nc2cccc3cccc1c23 [Example 1, N-[3-(1H-Imidazol-1-yl)-propyl]-N-octyl-benz[cd]indol-2-amine, Fumarate (1:2)]
pIC50 [1]: 5.10 | pIC50 [2]: 5.92

Ic1ccc2c3c(cccc13)C(NCCCCn1ccnc1)=N2 [Example 2, N-[4-(1H-Imidazol-1-yl)-butyl]-6-iodo-benz[cd]indol-2-amine]
pIC50 [2]: 5.17

CN1C(=NCCCn2ccnc2)c2cccc3c(CO)ccc1c23 [Example 3, 1,2-Dihydro-2-[[3-(1H-imidazol-1-yl)propyl]imino]-1-methyl-benz[cd]indole-6-methanol, Fumarate (1:1)]
pIC50 [1]: < 5.00 | pIC50 [2]: 5.60

c1ccc(CN2C(=NCCCCn3ccnc3)c3cccc4cccc2c34)cc1 [Example 4, N-[1-(Phenylmethyl)benz[cd]indol-2(1H)-ylidene]-1H-imidazole-1-butanamine, Fumarate (1:2)]
pIC50 [1]: < 5.00 | pIC50 [2]: 5.55

N#CCCCCN1C(=NCCCn2ccnc2)c2cccc3cccc1c23 [Example 5, 2-[[3-(1H-Imidazol-1-yl)propyl]imino]-benz[cd]indole-1(2H)-pentanenitrile]
pIC50 [1]: 5.32 | pIC50 [2]: 6.49

c1cc2c3c(cccc3c1)N(CCCN1C(=NCCCn3ccnc3)c3cccc4cccc1c34)C2=NCCCn1ccnc1 [Example 6, N,N′-[1,3-Propanediylbis(benz[cd]indol-1(2H)-yl-2-ylidene)]bis-1H-imidazole-1-propanamine]
pIC50 [1]: < 5.00 | pIC50 [2]: 5.65

CCCCCCN1C(=NCCCn2ccnc2)c2cccc3cccc1c23 [Example 7, N-(1-Hexylbenz[cd]indol-2(1H)-ylidene)-1H-imidazole-1-propanamine, Fumarate (1:2)]
pIC50 [1]: < 5.00 | pIC50 [2]: 5.74

c1cncc(CN2C(=NCCCn3ccnc3)c3cccc4cccc2c34)c1 [Example 9, N-[1-(3-Pyridinylmethyl)benz[cd]indol-2(1H)-ylidene]-1H-imidazole-1-propanamine]
pIC50 [1]: < 5.00 | pIC50 [2]: 5.70

c1ccc(CN2C(=NCCCn3ccnc3)c3cccc4cccc2c34)cc1 [Example 10, N-[1-(Phenylmethyl)benz[cd]indol-2(1H)-ylidene]-1H-imidazole-1-propanamine, Fumarate (1:2)]
pIC50 [2]: 6.19

c1ccc(CCCN2C(=NCCCn3ccnc3)c3cccc4cccc2c34)cc1 [Example 11, N-[1-(3-Phenylpropyl)benz[cd]indol-2(1H)-ylidene]-1H-imidazole-1-propanamine, Fumarate (1:2)]
pIC50 [1]: 5.02 | pIC50 [2]: 6.22

c1ccc(OCCCN2C(=NCCCn3ccnc3)c3cccc4cccc2c34)cc1 [Example 12, N-[1-(3-Phenoxypropyl)benz[cd]indol-2-(1H)-ylidene]-1H-imidazole-1-propanamine, Dihydrochloride]
pIC50 [2]: 5.82

COc1cccc(CN2C(=NCCCn3ccnc3)c3cccc4cccc2c34)c1 [Example 13, N-[1-[(3-Methoxyphenyl)methyl]benz[cd]indol-2(1H)-ylidene]-1H-imidazole-1-propanamine]
pIC50 [1]: < 5.00 | pIC50 [2]: 6.40

FC(F)(F)c1cccc(CN2C(=NCCCn3ccnc3)c3cccc4cccc2c34)c1 [Example 14, N-[1-[[3-(Trifluoromethyl)phenyl]methyl]benz[cd]indol-2(1H)-ylidene]-1H-imidazole-1-propanamine]
pIC50 [1]: 5.07 | pIC50 [2]: 6.70

Clc1ccc(CN2C(=NCCCn3ccnc3)c3cccc4cccc2c34)cc1 [Example 15, N-[1-[(4-Chlorophenyl)methyl]benz[cd]indol-2(1H)-ylidene]-1H-imidazole-1-propanamine]
pIC50 [2]: 6.74

c1ccc(N2C(=NCCCn3ccnc3)c3cccc4cccc2c34)cc1 [Example 16, N-(1-Phenylbenz[cd]indol-2(1H)-ylidene)-1H-imidazole-1-propanamine]
pIC50 [1]: < 5.00 | pIC50 [2]: 5.60

c1cc2c3c(cccc3c1)C(N1CCC(Cn3ccnc3)CC1)=N2 [Example 17, 2-[4-(1H-Imidazol-1-ylmethyl)-1-piperidinyl]-benz[cd]indole, Monohydriodide]
pIC50 [1]: < 5.00 | pIC50 [2]: 5.70

Clc1ccc2c3c(cccc13)C(=NCCCn1ccnc1)N2Cc1ccccc1 [Example 18, N-[6-Chloro-1-(phenyl-methyl)benz[cd]indol-2(1H)-ylidene]-1H-imidazole-1-propanamine]
pIC50 [1]: < 5.00 | pIC50 [2]: 6.10

Clc1ccc2c3c(cccc13)C(=NCCc1cccnc1)N2Cc1ccccc1 [Example 19, N-[6-Chloro-1-(phenylmethyl)benz[cd]indol-2(1H)-ylidene]-3-pyridinethanamine]
pIC50 [1]: < 5.00 | pIC50 [2]: 7.00

Clc1ccc(CN2C(=NCCCn3ccnc3)c3cccc4c(I)ccc2c34)cc1 [Example 20, N-(1-(4-Chlorobenzyl)-6-iodobenzo[cd]indol-2-(1H)-ylidene)-3-(1H-imidazol-1-yl)-1-propanamine]
pIC50 [2]: 6.05

Ic1ccc2c3c(cccc13)C(=NCCCn1ccnc1)N2 [Example 21, 3-(1H-Imidazol-1-yl)-N-(6-iodobenzo[cd]indol-2(1H)-ylidene)-1-propanamine]
melting point: 185 to 188 °C

Ic1ccc2c3c(cccc13)C(=NCc1ccccc1)N2 [Example 22, N-Benzyl-N-(6-iodobenzo[cd]indol-2(1H)-ylidene)amine]
melting point: 160 to 163 °C

N-(1-Hexylbenz[cd]indol-2(1H)-ylidene)-3-pyridinebutanamine, Fumarate (2:3) [Example 8]
pIC50 [1]: < 5.00 | pIC50 [2]: 5.62
